Non-standard residues stand in square brackets, D forms with d. Residues, ends and D or L forms follow the SMILES beside them. No end group written: not given here. 1Nal = N[C@@H](Cc1cccc2ccccc12)C(=O)O; Aib = CC(C)(N)C(=O)O
What was measured:
[1] = target: T1, LCAT (purified from human plasma) (Homo sapiens, UniProt P04180); assay: LCAT activation assay; assay type: biochemical; conditions: LCAT activation as compared with native human ApoA-I (= 100%), equivalent masses
T1 construct: from tissue; host or cells: human plasma
T1 sequence (P04180 25-440): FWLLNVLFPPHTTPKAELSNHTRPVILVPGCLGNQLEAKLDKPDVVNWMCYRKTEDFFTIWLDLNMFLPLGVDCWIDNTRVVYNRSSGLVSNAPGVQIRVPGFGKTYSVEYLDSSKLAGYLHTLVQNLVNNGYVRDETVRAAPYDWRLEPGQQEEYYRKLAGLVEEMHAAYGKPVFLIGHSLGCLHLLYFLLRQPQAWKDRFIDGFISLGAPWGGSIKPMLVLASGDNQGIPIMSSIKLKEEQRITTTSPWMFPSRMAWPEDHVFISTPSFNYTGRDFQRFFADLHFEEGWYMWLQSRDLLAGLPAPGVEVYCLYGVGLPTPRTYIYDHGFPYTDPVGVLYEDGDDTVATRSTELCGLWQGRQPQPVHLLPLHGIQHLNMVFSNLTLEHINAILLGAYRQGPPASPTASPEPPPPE
In short: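 Activity was expressed as percentage conversion of radiolabelled cholesterol to cholesteryl ester, normalised to native ApoA-I as 100%. LCAT purified from human plasma was added to peptide-preincubated EPC or POPC/cholesterol (20:1) small unilamellar vesicles at pH 7.4. Specific activity is the peptide concentration reaching the conversion plateau at a fixed timepoint.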

[2] = Circular dichroism helicity determination; assay type: physicochemical; conditions: percent helicity; for He (%) free: unbound peptide 5 μM in 5 mM phosphate buffer, pH 7.4, 37° C.; for He (%) SUVs: peptide-SUV complexes (20:1 EPC:Chol., Ri=30 and Ri=50); for He (%) SUVs / He (%) TFE: 37° C.; for He (%) mics: peptide-micelle complexes, Ri=100, 37° C.; for He (%) TFE: 5 μM peptide, 90% vol TFE
Method: Far UV circular dichroism spectra were recorded between 190 and 260 nm (in 0.5 nm or 0.2 nm increments) with a AVIV62DS spectrometer (AVIV Associates, Lakewood, N.J., USA) equipped with a thermoelectric cell holder and sample changer. The instrument was calibrated with (+)-10-[…]. Between one and three scans were collected for each sample, using 10 cm, 5 cm, 1 cm and 0.1 cm path length quartz Suprasil cells, respectively, for peptide concentrations of 10^−7 M to 10^−4 M. The bandwidth was fixed at 1.5 nm and the scan speed to 1s per wavelength step. The reported data are the mean of at least 2 or 3 independent measurements.
After background substraction, spectra were converted to molar ellipticity (θ) per residue in deg. […] dmol^−1. The peptide concentration was determined by amino acid analysis and also by absorption spectrometry on a Perkin Elmer Lambda 17 UV/Visible spectrophotometer when the peptide contained a chromophore (tryptophane, dansyl, naphtylalanine).
CD spectra were obtained with free, unbound peptide (5 μM in 5 mM phosphate buffer, pH 7.4); with peptide-SUV complexes (20:1 EPC:Chol., Ri=30 and Ri=50); with peptide-micelle complexes (1-myristoyl-2-hydroxy-sn-glycero-3-phosphatidyl choline, Ri=100); and with free, unbound peptide in the presence of 2,2,2-trifluoroethanol (TFE) (5 μM peptide, 90% vol TFE).
The SUVs were obtained by dispersing the lipids (10 mM, 20:1 EPC:Chol., Avanti Polar Lipids, AL) in phosphate buffer (5 mM, pH 7.4) with bubbling N2 for 5 min., followed by sonication (1.5 hr.) in a bath sonicator. The homogeneity of the preparation was checked by FPLC.
The micelles were obtained by dispersing the lipid (6 mM 1-myristoyl-2-hydroxy-sn-glycero-3-phosphatidyl choline, Avanti Polar Lipids, AL) in phosphate buffer (5 mM, pH 7.4) with bubbling N2 for 5 min., followed by vortexing.
To obtain the peptide-SUV complexes, SUVs were added to the peptide (5 μM in 5 mM phosphate buffer, pH 7.4) at a phospholipid-peptide molar ratio (Ri) of 30 or 50.
To obtain the peptide-micelle complexes, micelles were added to the peptide (5 μM in 5 mM phosphate buffer, pH 7.4) at a Ri of 100.
All spectra were recorded at 37° C.
The degree of helicity of the peptides in the various conditions was determined from the mean residue ellipticity at 222 nm (Chen et al., 1974, Biochemistry 13:3350-3359) or by comparing the CD spectra obtained to reference spectra available on databases (16 helical reference spectra from Provencher & Glockner, 1981, Biochemistry 20:33-37; denatured protein reference spectra from Venyaminov et al., 1993, Anal. Biochem. 214:17-24) using the CONTIN curve-fitting algorithm version 2DP, CD-1 pack (August 1982) (Provencher, 1982, Comput. Phys. Commun. 27:213-227, 229-242). Acceptable fit was determined using the statistical analysis methodology provided by the CONTIN algorithm. The error of all methods was ±5% helicity.

Molecule	ACTIVITY (%) LCAT [1] [%]	He (%) free [2] [%]	He (%) SUVs [2] [%]	He (%) mics [2] [%]	He (%) TFE [2] [%]
CC(C)C[C@H](NC(=O)[C@H](C)NC(=O)[C@H](CCC(=O)O)NC(=O)[C@H](CC(C)C)NC(=O)[C@H](CC(C)C)NC(=O)[C@H](CCC(=O)O)NC(=O)[C@H](CC(N)=O)NC(=O)[C@H](CC(C)C)NC(=O)[C@H](CC(C)C)NC(=O)[C@H](CCC(=O)O)NC(=O)[C@H](CCCNC(=N)N)NC(=O)[C@H](Cc1ccccc1)NC(=O)[C@H](CC(C)C)NC(=O)[C@H](CC(=O)O)NC(=O)[C@H](CC(C)C)NC(=O)[C@@H](NC(=O)[C@@H]1CCCN1)C(C)C)C(=O)N[C@@H](CCCN)C(=O)N[C@@H](CCC(N)=O)C(=O)N[C@@H](CCCN)C(=O)N[C@@H](CC(C)C)C(=O)N[C@@H](CCCN)C(=O)O [peptide 14, PVLDLFRELLNELLEALOQOLO]	61	70	80	96	–
PVLDLFRELLNEGLEALKQKLK [compound 8]	83	20	61	90	93
CC(C)C[C@@H](NC(=O)[C@H](N)CCCCN)C(=O)N[C@H](CCCCN)C(=O)N[C@H](CCC(N)=O)C(=O)N[C@H](CCCCN)C(=O)N[C@H](CC(C)C)C(=O)N[C@H](C)C(=O)N[C@H](CCC(=O)O)C(=O)N[C@H](CC(C)C)C(=O)N[C@H](CC(C)C)C(=O)N[C@H](CCC(=O)O)C(=O)N[C@H](CC(N)=O)C(=O)N[C@H](CC(C)C)C(=O)N[C@H](CC(C)C)C(=O)N[C@H](CCC(=O)O)C(=O)N[C@H](CCCNC(=N)N)C(=O)N[C@H](Cc1ccccc1)C(=O)N[C@H](CC(C)C)C(=O)N[C@H](CC(=O)O)C(=O)N[C@H](CC(C)C)C(=O)N[C@@H](C(=O)N1CCC[C@@H]1C(=O)O)C(C)C [compound 107, klkqklaellenllerfldlvp]	0	–	–	–	77
CC(C)C[C@H](NC(=O)[C@H](CCCCN)NC(=O)[C@H](CCC(N)=O)NC(=O)[C@H](CCCCN)NC(=O)[C@H](CC(C)C)NC(=O)[C@@H](N)CCCCN)C(=O)N[C@@H](C)C(=O)N[C@@H](CCC(=O)O)C(=O)N[C@@H](CC(C)C)C(=O)N[C@@H](CC(C)C)C(=O)N[C@@H](CCC(=O)O)C(=O)N[C@@H](CC(N)=O)C(=O)N[C@@H](CC(C)C)C(=O)N[C@@H](CC(C)C)C(=O)N[C@@H](CCC(=O)O)C(=O)N[C@@H](CCCNC(=N)N)C(=O)N[C@@H](Cc1ccccc1)C(=O)N[C@@H](CC(C)C)C(=O)N[C@@H](CC(=O)O)C(=O)N[C@@H](CC(C)C)C(=O)N[C@H](C(=O)N1CCC[C@H]1C(=O)O)C(C)C [compound 99]	2	72	80	88	80
PVLDLFRELLNELLEALKQ [compound 60]	16	39	66	83	84
PVLDEFREKLNEALEALKQKLK [peptide 94, reference compound]	5	18	27	70	63
CC(C)C[C@H](NC(=O)[C@H](C)NC(=O)[C@H](CCC(=O)O)NC(=O)[C@H](CC(C)C)NC(=O)[C@H](CC(C)C)NC(=O)[C@H](CCC(=O)O)NC(=O)[C@H](CC(N)=O)NC(=O)[C@H](CC(C)C)NC(=O)[C@H](CC(C)C)NC(=O)[C@H](CCC(=O)O)NC(=O)[C@H](CCCNC(=N)N)NC(=O)[C@H](Cc1ccccc1)NC(=O)[C@H](Cc1cccc2ccccc12)NC(=O)[C@H](CC(=O)O)NC(=O)[C@H](CC(C)C)NC(=O)[C@@H](NC(=O)[C@@H]1CCCN1)C(C)C)C(=O)N[C@@H](CCCCN)C(=O)N[C@@H](CCC(N)=O)C(=O)N[C@@H](CCCCN)C(=O)N[C@@H](CC(C)C)C(=O)N[C@@H](CCCCN)C(=O)O [compound 34, PVLDZFRELLNELLEALKQKLK] (H-PVLD[1Nal]FRELLNELLEALKQKLK-OH)	32	58	68	67	62
CC(C)C[C@H](NC(=O)[C@H](C)NC(=O)[C@H](CC(=O)O)NC(=O)[C@H](CC(C)C)NC(=O)[C@H](CC(C)C)NC(=O)[C@H](CCCNC(=N)N)NC(=O)[C@H](CCC(=O)O)NC(=O)[C@H](CC(C)C)NC(=O)[C@H](CC(C)C)NC(=O)[C@H](CC(N)=O)NC(=O)[C@H](CCC(=O)O)NC(=O)[C@H](Cc1ccccc1)NC(=O)[C@H](CC(C)C)NC(=O)[C@H](CCC(=O)O)NC(=O)[C@H](CC(C)C)NC(=O)[C@@H](NC(=O)[C@H]1CCCN1)C(C)C)C(=O)N[C@@H](CCC(N)=O)C(=O)N[C@@H](CCCCN)C(=O)N[C@@H](CCCCN)C(=O)N[C@@H](CC(C)C)C(=O)N[C@@H](CCCCN)C(=O)O [peptide 144] (H-[dP]VLELFENLLERLLDALQKKLK-OH)	111	89	–	88	95
Ac-PVLDLFRELWEELKQKLK-NH2 [compound 199]	76	35	80	77	79
PVLELFENLLERLGDALQKKLK [peptide 148]	75	10	23	76	80
CC(C)C[C@H](NC(=O)[C@H](C)NC(=O)[C@H](CCC(=O)O)NC(=O)[C@H](CC(C)C)NC(=O)[C@H](CC(C)C)NC(=O)[C@H](CCC(=O)O)NC(=O)[C@H](CC(N)=O)NC(=O)[C@H](CC(C)C)NC(=O)[C@H](CC(C)C)NC(=O)[C@H](CCC(=O)O)NC(=O)[C@H](CCCNC(=N)N)NC(=O)[C@H](Cc1ccccc1)NC(=O)[C@H](CC(C)C)NC(=O)[C@H](CC(=O)O)NC(=O)[C@H](CC(C)C)NC(=O)[C@@H](NC(=O)[C@@H]1CCCN1)C(C)C)C(=O)N[C@@H](CCCCN)C(=O)N[C@@H](CCC(N)=O)C(=O)N[C@@H](CCCCN)C(=O)N[C@@H](CC(C)C)C(=O)N[C@@H](CCCCN)C(=O)O [compound 4]	93	80	97	95	94
CC(C)C[C@H](NC(=O)[C@H](CCCCN)NC(=O)[C@H](CCC(N)=O)NC(=O)[C@H](CCCCN)NC(=O)[C@H](Cc1c[nH]c2ccccc12)NC(=O)[C@H](C)NC(=O)[C@H](CCC(=O)O)NC(=O)[C@H](CC(C)C)NC(=O)C(C)(C)NC(=O)[C@H](CCC(=O)O)NC(=O)[C@H](CC(N)=O)NC(=O)[C@H](CC(C)C)NC(=O)[C@H](CC(C)C)NC(=O)[C@H](CCC(=O)O)NC(=O)[C@H](CCCNC(=N)N)NC(=O)[C@H](Cc1ccccc1)NC(=O)[C@H](CC(C)C)NC(=O)[C@H](CC(=O)O)NC(=O)[C@H](CC(C)C)NC(=O)[C@@H](NC(=O)[C@@H]1CCCN1)C(C)C)C(=O)N[C@@H](CCCCN)C(=O)O [compound 38, PVLDLFRELLNEXLEAWKQKLK] (H-PVLDLFRELLNE[Aib]LEAWKQKLK-OH)	29	25	21	49	49
